The values below come from patent US20080233102A1, “Drug Therapy for Celiac Sprue” (priority 2002, published 2008).

Molecules are shown by their SMILES.

The target in assay [1] is T1, recombinant human tissue transglutaminase (Homo sapiens, UniProt P21980).
T1 construct: made in house
T1 sequence (P21980 1-687): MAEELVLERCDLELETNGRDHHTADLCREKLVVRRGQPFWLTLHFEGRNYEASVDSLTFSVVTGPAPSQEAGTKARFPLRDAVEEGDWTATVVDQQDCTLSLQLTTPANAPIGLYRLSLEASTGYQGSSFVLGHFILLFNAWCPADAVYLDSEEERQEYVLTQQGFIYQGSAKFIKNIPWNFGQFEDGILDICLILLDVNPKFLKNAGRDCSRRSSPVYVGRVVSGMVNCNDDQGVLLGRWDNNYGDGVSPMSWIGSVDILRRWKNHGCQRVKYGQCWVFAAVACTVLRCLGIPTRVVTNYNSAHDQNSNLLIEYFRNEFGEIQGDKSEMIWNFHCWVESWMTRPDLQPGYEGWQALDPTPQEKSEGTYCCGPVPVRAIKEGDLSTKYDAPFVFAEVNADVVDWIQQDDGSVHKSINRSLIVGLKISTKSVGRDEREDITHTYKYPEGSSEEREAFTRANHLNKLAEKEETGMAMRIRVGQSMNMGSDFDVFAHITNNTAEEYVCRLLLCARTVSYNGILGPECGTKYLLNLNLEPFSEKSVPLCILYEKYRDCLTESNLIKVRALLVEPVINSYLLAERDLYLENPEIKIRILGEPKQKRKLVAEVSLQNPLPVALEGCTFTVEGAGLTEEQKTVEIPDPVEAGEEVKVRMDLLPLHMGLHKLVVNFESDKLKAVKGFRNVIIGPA
As to the kind of experiment: tTGase assay with recombinant human tissue transglutaminase. Format: biochemical. Conditions: dihydroisoxazole inhibitors of human tTGase; irreversible inactivation.

Assay [2] deals with bovine epidermal transglutaminase. Conditions: Castelhano et al., Bioorg. Chem. (1988) 16, 335-340; cited from earlier work.
The target in assay [3] is T2, Tissue transglutaminase (tTG) (Homo sapiens, UniProt P21980).
T2 sequence (P21980 1-687): T1 sequence (P21980 1-687)
As to the kind of experiment: Inhibition of tTG (residual activity, glutamate dehydrogenase coupled assay). Format: biochemical. Conditions: isatin derivatives; reversible, competitive inhibition constant; read-out: Kl. How it is done:
Inhibition of tTG. tTG (9 μM) was inactivated in 200 mM MOPS, pH=7.1, 5 mM CaCl2, 1 mM ETDA at 30° C. containing 0-600 μM Pro-Gln-Pro-Aci-Leu-Pro-Tyr. Every 20 minutes a 40 μl aliquot was removed and residual tTG activity was assayed in 0.5 ml reaction containing 200 mM MOPS, pH=7.1, 5 mM CaCl2, 1 mM ETDA, 10 mM α-ketoglutarate, 180 U/ml glutamate dehydrogenase (Biozyme laboratories) at 30° C. for 20 minutes by measuring the decrease of absorption at 340 nm. Residual activity was corrected by the corresponding uninhibited tTG reaction (0 μM inhibitor) and fitted to an exponential decay. Kinetic parameters were obtained by double-reciprocal plotting of the apparent second-order inactivation constant or, for isatin analogs, by fitting the data for reversible inhibitors to a standard Michaelis Menten equation with a competitive inhibition constant.

As for `O=C(N[C@@H](Cc1ccccc1)C(=O)NCC1CC(Br)=NO1)OCc1ccccc1` (stereo partly drawn) [1a, {(S)-1-[(3-Bromo-4,5-dihydro-isoxazol-5-ylmethyl)-carbamoyl]-2-phenyl-ethyl}-carbamic acid benzyl ester], the “Inhibition Rate Constants (kinh)” value in assay [1] was 1.3 min⁻¹. In addition, the “Inhibition of bovine epidermal transglutaminase” value in assay [2] is “inhibitor”.

As to `O=C1Nc2ccc([N+](=O)[O-])cc2C1=O` [R2 = R3 = H, R1 = NO2], the Ki in assay [3] came to 48 µM.
